What was measured:
[1] = tested on: human pancreatic cancer (AsPC-1); assay: Anticancer effects on human pancreatic cancer (AsPC-1) xenograft; assay type: in vivo, nude mice
Experimental: Nude mice were purchased and stored in a specific pathogen free (SPF) room of the Korea Research Institute of Bioscience and Biotechnology, and allowed to acclimate for 1 week before use. Human pancreatic cancer, that is, AsPC1 cells were injected subcutaneously into each nude mouse at a concentration of 9×10^6 cells. […] As a positive control group, adriamycin was administered intravenously at a concentration of 2 mg/kg once a week for total 4 times.
(§1) Standard deviations (SDs) and p-values of all test results were calculated using ANOVA (Prisim, GraphPad software, USA) and student's t-test.

[2] = tested on: human prostate cancer (PC-3); assay: Anticancer effects on human prostate cancer (PC-3) xenograft; assay type: in vivo, nude mice
Experimental: Nude mice were purchased and stored in a specific pathogen free (SPF) room of the Korea Research Institute of Bioscience and Biotechnology, and allowed to acclimate for 1 week before use. Human prostate cancer, that is, PC-3 cells were injected subcutaneously into each nude mouse at a concentration of 9×10^6 cells. […] As a positive control group, adriamycin was administered intravenously at a concentration of 2 mg/kg once a week for total 4 times.
as §1

[3] = tested on: human colon cancer (SW620); assay: Anticancer effects on human colon cancer (SW620) xenograft; assay type: in vivo, nude mice
Experimental: Nude mice were purchased and stored in a specific pathogen free (SPF) room of the Korea Research Institute of Bioscience and Biotechnology, and allowed to acclimate for 1 week before use. Human colon cancer, that is, SW620 cells were injected subcutaneously into each nude mouse at a concentration of 6×10^6 cells. […] As a positive control group, adriamycin was administered intravenously at a concentration of 2 mg/kg once a week for total 4 times.
as §1

[4] = tested on: human renal cancer (ACHN); assay: Anticancer effects on human renal cancer (ACHN) xenograft
Experimental: Nude mice were purchased and stored in a specific pathogen free (SPF) room of the Korea Research Institute of Bioscience and Biotechnology, and allowed to acclimate for 1 week before use. Human renal cancer, that is, ACHN cells were injected subcutaneously into each nude mouse at a concentration of 1.2×10^7 cells. […] As a positive control group, adriamycin was administered intravenously at a concentration of 2 mg/kg once a week for total 4 times.
Standard deviations (SDs) and p-values of all test results were calculated using ANOVA (Prisim. GraphPad software, USA) and student's t-test.

[5] = tested on: human melanoma cancer (LOX-IMV1); assay: Anticancer effects on human melanoma cancer (LOX-IMV1) xenograft
Experimental: Nude mice were purchased and stored in a specific pathogen free (SPF) room of the Korea Research Institute of Bioscience and Biotechnology, and allowed to acclimate for 1 week before use. Human melanoma cancer, that is, LOX-IMV1 cells were injected subcutaneously into each nude mouse at a concentration of 1.5×10^6 cells. […] As a positive control group, adriamycin was administered intravenously at a concentration of 2 mg/kg once a week for total 3 times.
as §1

[6] = adriamycin 2 mg/kg i.v., day 25
[7] = day 25 compared with Day-1 (100%), adriamycin 2 mg/kg
[8] = adriamycin 2 mg/kg i.v., day 22
[9] = adriamycin 2 mg/kg i.v., day 28
[10] = adriamycin 2 mg/kg i.v., day 15

Compound: COc1cccc2c1C(=O)c1c(O)c3c(c(O)c1C2=O)C[C@@](O)(C(=O)CO)C[C@@H]3O[C@H]1C[C@H](N)[C@H](O)[C@H](C)O1 [adriamycin]
- growth inhibition (tumor size) [1, 6]: 48%
- growth inhibition (tumor weight) [1, 6]: 44%
- tumor size [1, 6]: 130±28 mm^3
- tumor weight [1, 6]: 473 ± 64 mg
- Tumor growth rate (%) compared to the control group ([1]; adriamycin (2 mg/kg), day 25, AsPC-1): 55 ± 8%
- body weight change [1, 7]: 125%
- growth inhibition (tumor size) [2, 8]: 40%
- growth inhibition (tumor weight) [2, 8]: 40%
- tumor size [2, 8]: 225±59 mm^3
- tumor weight [2, 8]: 808 ± 156 mg
- Tumor growth rate (%) compared to the control group ([2]; adriamycin (2 mg/kg), day 22, PC-3): 60 ± 12%
- body weight change ([2]; day 22 compared with Day-1 (100%), adriamycin 2 mg/kg): 102%
- growth inhibition (tumor size) [3, 6]: 48%
- growth inhibition (tumor weight) [3, 6]: 49%
- tumor size [3, 6]: 142±97 mm^3
- tumor weight [3, 6]: 834 ± 306 mg
- Tumor growth rate (%) compared to the control group ([3]; adriamycin (2 mg/kg), day 25, SW-620): 54 ± 28%
- body weight change [3, 7]: 114%
- growth inhibition (tumor size) [4, 9]: 40%
- growth inhibition (tumor weight) [4, 9]: 37%
- tumor size [4, 9]: 192±44 mm^3
- tumor weight [4, 9]: 409 ± 41 mg
- Tumor growth rate (%) compared to the control group ([4]; adriamycin (2 mg/kg), day 28, ACHN): 63 ± 6%
- body weight change ([4]; day 28 compared with Day-1 (100%), adriamycin 2 mg/kg): 95%
- growth inhibition (tumor size) [5, 10]: 72%
- growth inhibition (tumor weight) [5, 10]: 70%
- tumor weight [5, 10]: 496 ± 306 mg
- Tumor growth rate (%) compared to the control group ([5]; adriamycin (2 mg/kg), day 15, LOX-IMVI): 30 ± 18%
- body weight change ([5]; day 15 compared with Day-1, adriamycin 2 mg/kg): 122%

— patent US12291721B2, “Activated lymphocytes comprising cytokine-induced killer cells and preparation method therefor” (GREENCROSSCELL, priority 2019, dated 2025)
